Results: article PMC6248945, “Antibacterial properties of the pituitary adenylate cyclase-activating polypeptide: A new human antimicrobial peptide” (PLoS ONE, 2018)
≈ marks a conversion by molar mass, not a printed value. Where a SMILES comes first, the peptide text is derived from it. [ ]: non-standard residue; d: D form. Tic = O=C(O)[C@@H]1Cc2ccccc2CN1

What was measured:
Escherichia coli (JM109) = test: MIC, CLSI microdilution; assay type: cell-based; details: MHB, 37 °C, 20h, OD read-out, at least triplicate
Description: Assays were performed according to the CLSI microdilution method. Briefly, the bacterial strains were inoculated and allowed to reach an OD600 of 0.08–0.13 prior to dilution to 10^6 CFU/mL in Mueller-Hinton broth (MHB). A bacterial suspension (50 μL) was then added to each well of a 96-well microplate containing serially diluted peptide solutions (50 μL in MHB) and incubated at 37 °C for 20h. A well containing sterilized medium was used as a sterility control and another well containing no added peptide served as a growth control.

[1] = tested on: Pseudomonas putida (KT2440); details: 20 h
[2] = tested on: Burkholderia cenocepacia (K56-2); details: 20 h
[3] = tested on: Burkholderia cenocepacia (J2315); details: 20 h
Bacillus subtilis (PY79) = details: PY79, 20 h
[4] = tested on: Bacillus amyloliquefaciens (LMG22478); details: LMG22478, 20 h
Bacillus subtilis (2597) = details: 2597, 20 h
[5] = tested on: Actinobacillus pleuropneumoniae (4074); details: 20 h
[6] = tested on: Serratia marcescens (ATCC14756); details: ATCC14756, 20 h
[7] = tested on: Burkholderia cenocepacia (CEP0511 Gvar3b); details: CLSI microdilution, MHB, 37 °C, 20h, OD read-out; at least triplicate
[8] = tested on: Pseudomonas aeruginosa (ATCC33350-Sero-2); details: ATCC33350, 20 h
[9] = tested on: Bacillus circulans (LSPQ3543); details: 20 h
[10] = tested on: Staphylococcus aureus (Newman); details: 20 h
[11] = tested on: Burkholderia cenocepacia (LMG19240); details: CLSI microdilution, MHB, 37 °C, 20h, OD read-out; at least triplicate
[12] = tested on: Escherichia coli ATCC25922; details: ATCC25922, 20 h
[13] = tested on: Staphylococcus aureus (ATCC6538#P); details: ATCC6538, 20 h
[14] = tested on: Pseudomonas fluorescens (MF37); details: 20 h
[15] = tested on: Pseudomonas aeruginosa (PA14); details: PA14, 20 h
[16] = tested on: Bacillus cereus (ATCC11778); details: ATCC11778, 20 h
Bacillus velezensis = details: 20 h
[17] = tested on: Escherichia coli (O157 :H7); details: CLSI microdilution, MHB, 37 °C, 20h, OD read-out; at least triplicate
[18] = tested on: Burkholderia thailendensis (ATCC700388); details: CLSI microdilution, MHB, 37 °C, 20h, OD read-out; at least triplicate
[19] = tested on: Burkholderia cenocepacia (LMG18829); details: LMG18829, 20 h
[20] = relative to PACAP38; cited from earlier work
DPP-IV = tested on: DPP-IV; design: method as in PMID 18353507; details: cited from earlier work

SMILES | MIC, Escherichia coli (JM109) (Escherichia coli (JM109)) [µg/mL] | MIC, Pseudomonas putida (KT2440) [1] [µg/mL] | MIC, Burkholderia cenocepacia (K56-2) [2] [µg/mL] | MIC, Burkholderia cenocepacia (J2315) [3] [µg/mL] | MIC, Bacillus subtilis (PY79) (Bacillus subtilis (PY79)) [µg/mL] | MIC, Bacillus amyloliquefaciens [4] [µg/mL] | MIC, Bacillus subtilis (2597) (Bacillus subtilis (2597)) [µg/mL] | MIC, Actinobacillus pleuropneumoniae [5] [µg/mL] | MIC, Serratia marcescens (ATCC14756) [6] [µg/mL] | MIC, Burkholderia cenocepacia (CEP0511 Gvar3b) [7] [µg/mL] | MIC, Pseudomonas aeruginosa (ATCC33350-Sero-2) [8] [µg/mL] | MIC, Bacillus circulans (LSPQ3543) [9] [µg/mL] | MIC, Staphylococcus aureus (Newman) [10] [µg/mL] | MIC, Burkholderia cenocepacia (LMG19240) [11] [µg/mL] | MIC, Escherichia coli ATCC25922 [12] [µg/mL] | MIC, Staphylococcus aureus (ATCC6538#P) [13] [µg/mL] | MIC, Pseudomonas fluorescens (MF37) [14] [µg/mL] | MIC, Pseudomonas aeruginosa (PA14) [15] [µg/mL] | MIC, Bacillus cereus (ATCC11778) [16] [µg/mL] | MIC, Bacillus velezensis (Bacillus velezensis) [µg/mL] | also measured
CSCC[C@H](NC(=O)[C@H](CCC(N)=O)NC(=O)[C@H](CCCCN)NC(=O)[C@H](CCCNC(=N)N)NC(=O)[C@H](Cc1ccc(O)cc1)NC(=O)[C@H](CCCNC(=N)N)NC(=O)[C@H](CO)NC(=O)[C@H](Cc1ccc(O)cc1)NC(=O)[C@@H](N)CO)C(=O)N[C@@H](C)C(=O)N[C@H](C(=O)N[C@@H](CCCCN)C(=O)N[C@@H](CCCCN)C(=O)N[C@@H](Cc1ccc(O)cc1)C(=O)N[C@@H](CC(C)C)C(=O)N[C@@H](C)C(=O)N[C@@H](C)C(=O)N[C@H](C(=O)N[C@@H](CC(C)C)C(=O)NCC(=O)N[C@@H](CCCCN)C(=O)N[C@@H](CCCNC(=N)N)C(=O)N[C@@H](Cc1ccc(O)cc1)C(=O)N[C@@H](CCCCN)C(=O)N[C@@H](CCC(N)=O)C(=O)N[C@@H](CCCNC(=N)N)C(=O)N[C@H](C(=O)N[C@@H](CCCCN)C(=O)N[C@@H](CC(N)=O)C(=O)N[C@@H](CCCCN)C(N)=O)C(C)C)C(C)C)C(C)C [compound 10, PACAP(9–38)] (H-SYSRYRKQMAVKKYLAAVLGKRYKQRVKNK-NH2) | >183 | >183 | >183 | 19 (≈ 5.19 µM) | >183 | >183 | >183 | >183 |  |  |  |  |  |  |  |  |  |  |  |  | 
CC[C@H](C)[C@H](NC(=O)CNC(=O)[C@H](CC(=O)O)NC(=O)[C@H](CO)NC(=O)[C@@H](N)Cc1c[nH]cn1)C(=O)N1Cc2ccccc2C[C@H]1C(=O)N[C@H](C(=O)N[C@@H](CC(=O)O)C(=O)N[C@@H](CO)C(=O)N[C@@H](Cc1ccc(O)cc1)C(=O)N[C@@H](CO)C(=O)N[C@@H](CCCNC(=N)N)C(=O)N[C@@H](Cc1ccc(O)cc1)C(=O)N[C@@H](CCCNC(=N)N)C(=O)N[C@@H](CCCCN)C(=O)N[C@@H](CCC(N)=O)C(=O)N[C@@H](CCSC)C(=O)N[C@@H](C)C(=O)N[C@H](C(=O)N[C@@H](CCCCN)C(=O)N[C@@H](CCCCN)C(=O)N[C@@H](Cc1ccc(O)cc1)C(=O)N[C@@H](CC(C)C)C(=O)N[C@@H](C)C(=O)N[C@@H](C)C(=O)N[C@H](C(=O)N[C@@H](CC(C)C)C(=O)NCC(=O)N[C@@H](CCCCN)C(=O)N[C@@H](CCCNC(=N)N)C(=O)N[C@@H](Cc1ccc(O)cc1)C(=O)N[C@@H](CCCCN)C(=O)N[C@@H](CCC(N)=O)C(=O)N[C@@H](CCCNC(=N)N)C(=O)N[C@H](C(=O)N[C@@H](CCCCN)C(=O)N[C@@H](CC(N)=O)C(=O)N[C@@H](CCCCN)C(N)=O)C(C)C)C(C)C)C(C)C)[C@@H](C)O [compound 7, [Tic^6]PACAP38] (H-HSDGI[Tic]TDSYSRYRKQMAVKKYLAAVLGKRYKQRVKNK-NH2) | >200 | 33 (≈ 7.26 µM) | >200 | 2 (≈ 0.44 µM) | 7 (≈ 1.54 µM) | 21 (≈ 4.62 µM) | >200 | >200 | >200 | >200 | >200 | 6 (≈ 1.32 µM) | >200 | >200 | >200 | >200 | >200 | >200 | >200 | 71 (≈ 15.6 µM) | MIC, Escherichia coli (O157 :H7) [17]: >200 µg/mL; MIC, Burkholderia thailendensis (ATCC700388) [18]: >200 µg/mL; MIC, Burkholderia cenocepacia (LMG18829) [19]: >200 µg/mL
CC[C@H](C)[C@H](NC(=O)CNC(=O)[C@H](CC(=O)O)NC(=O)[C@H](CO)NC(=O)[C@@H](N)Cc1c[nH]cn1)C(=O)N[C@@H](Cc1ccccc1)C(=O)N[C@H](C(=O)N[C@@H](CC(=O)O)C(=O)N[C@@H](CO)C(=O)N[C@@H](Cc1ccc(O)cc1)C(=O)N[C@@H](CO)C(=O)N[C@@H](CCCNC(=N)N)C(=O)N[C@@H](Cc1ccc(O)cc1)C(=O)N[C@@H](CCCNC(=N)N)C(=O)N[C@@H](C)C(=O)N[C@@H](CCC(N)=O)C(=O)N[C@@H](CCSC)C(=O)N[C@@H](C)C(=O)N[C@H](C(=O)N[C@@H](CCCCN)C(=O)N[C@@H](CCCCN)C(=O)N[C@@H](Cc1ccc(O)cc1)C(=O)N[C@@H](CC(C)C)C(=O)N[C@@H](C)C(=O)N[C@@H](C)C(=O)N[C@H](C(=O)N[C@@H](CC(C)C)C(=O)NCC(=O)N[C@@H](CCCCN)C(=O)N[C@@H](CCCNC(=N)N)C(=O)N[C@@H](Cc1ccc(O)cc1)C(=O)N[C@@H](CCCCN)C(=O)N[C@@H](CCC(N)=O)C(=O)N[C@@H](CCCNC(=N)N)C(=O)N[C@H](C(=O)N[C@@H](CCCCN)C(=O)N[C@@H](CC(N)=O)C(=O)N[C@@H](CCCCN)C(N)=O)C(C)C)C(C)C)C(C)C)[C@@H](C)O [compound 3, [Ala^15]PACAP38] (H-HSDGIFTDSYSRYRAQMAVKKYLAAVLGKRYKQRVKNK-NH2) | 93 (≈ 20.8 µM) | 93 (≈ 20.8 µM) | >200 | 9 (≈ 2.01 µM) | 5 (≈ 1.12 µM) | 10 (≈ 2.23 µM) | 111 (≈ 24.8 µM) | 112 (≈ 25 µM) | >200 | >200 | >200 | 21 (≈ 4.69 µM) | >200 | >200 | >200 | >200 | >200 | >200 | >200 | 33 (≈ 7.37 µM) | Metabolic stability in human plasma [20]: improved metabolic stability; MIC, Escherichia coli (O157 :H7) [17]: >200 µg/mL; Metabolic stability against DPP-IV (DPP-IV): improved metabolic stability; MIC, Burkholderia thailendensis (ATCC700388) [18]: >200 µg/mL; MIC, Burkholderia cenocepacia (LMG18829) [19]: >200 µg/mL
